Laboratory results published in patent US20240132431A1, “METHOD FOR ALKYLATING ACIDIC FUNCTIONAL GROUP” (Chugai Seiyaku Kabushiki Kaisha, priority 2021, published 2024).

Molecular target: T1, Bcl-2 protein (Recombinant Human Bcl-2 Protein) (Homo sapiens, UniProt P10415)
T1 construct: purchased Novus NBP2-34889
Test: Binding evaluation of mixture library compounds to Bcl-2 using AS-MS (affinity selection mass spectrometry)
Settings: for ASMS ratio (%) n = 1: replicate n = 1; for ASMS ratio (%) n = 1 / ASMS ratio (%) n = 2: ASMS Ratio(%)=(A−C)/B×100; for ASMS ratio (%) n = 2: replicate n = 2
Summary of the method: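 Affinity selection MS: Bcl-2 20 μM + 1200-cpd mixture, […]/cpd, Tris pH 7.4 buffer w/ Tween-20, DTT; 1 h 23° C dark; P-2 spin SEC; MeCN/MeOH extraction; RP LC/MS. ASMS Ratio(%) = (A−C)/B×100.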

[1] = AS-MS on the mixture of 1200 library compounds
[2] = AS-MS, mixture of 1200 compounds, Bcl-2

T1 sequence (P10415 whole entry): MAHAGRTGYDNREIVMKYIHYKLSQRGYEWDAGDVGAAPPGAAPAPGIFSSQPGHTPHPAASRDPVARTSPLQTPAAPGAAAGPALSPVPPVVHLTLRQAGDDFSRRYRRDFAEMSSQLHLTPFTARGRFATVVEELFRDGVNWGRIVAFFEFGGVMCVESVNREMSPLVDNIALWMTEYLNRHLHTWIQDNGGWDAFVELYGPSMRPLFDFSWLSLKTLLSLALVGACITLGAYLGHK

## CCOc1cncc(-c2ccc(CN3CCN(c4ccc(C(=O)NS(=O)(=O)c5ccc(NCCSc6ccccc6)c([N+](=O)[O-])c5)nn4)CC3)cc2C)c1 [B2Q074-01]
AS-MS, mixture library, Bcl-2
  ASMS ratio (%) n = 1: 18.8%
  ASMS ratio (%) n = 2: 15.4%

## CCOc1cncc(-c2ccc(C(=O)N3CCN(c4ccc(C(=O)N(C)CC56CC7CC(CC(C7)C5)C6)cc4)CC3)c3ccccc23)c1 [B3A036-01, N-(1-Adamantylmethyl)-4-[4-[4-(5-ethoxypyridin-3-yl)naphthalene-1-carbonyl]piperazin-1-yl]-N-methylbenzamide]
[1]
  ASMS ratio (%) n = 1: 2.8%
  ASMS ratio (%) n = 2: −3.3%

## CCOc1cccc(-c2ccc(C(C)N3CCN(c4ccc(C(=O)Nc5ccc(OC)cc5)cc4)CC3)c(F)c2)c1 (centres unmarked) [B1O099-01, 4-[4-[1-[4-(3-Ethoxyphenyl)-2-fluorophenyl]ethyl]piperazin-1-yl]-N-(4-methoxyphenyl)benzamide]
[1]
  ASMS ratio (%) n = 1: 4.7%
  ASMS ratio (%) n = 2: 1.7%

## CCOc1cncc(-c2ccc(CN3CCN(c4ccc(C(=O)NS(C)(=O)=O)nn4)CC3)c(CC)c2)c1 [B2I076-01, 6-[4-[[4-(5-Ethoxypyridin-3-yl)-2-ethylphenyl]methyl]piperazin-1-yl]-N-methylsulfonylpyridazine-3-carboxamide]
N = 1
  ASMS ratio (%): 0.2%
N = 2
  ASMS ratio (%): −3.2%

## 6-[4-[[4-(3-Ethoxyphenyl)thiophen-2-yl]methyl]piperazin-1-yl]-N-propylpyridazine-3-carboxamide [B1M049-01]
[2]
  ASMS ratio (%) n = 1: −0.9%
  ASMS ratio (%) n = 2: −0.4%

## CCOc1cccc(-c2ccccc2CN2CCN(c3ccc(C(=O)NCC45CC6CC(CC(C6)C4)C5)cc3)CC2)c1 [B1A045-01, N-(1-Adamantylmethyl)-4-[4-[[2-(3-ethoxyphenyl)phenyl]methyl]piperazin-1-yl]benzamide]
[2]
  ASMS ratio (%) n = 1: 1.1%
  ASMS ratio (%) n = 2: −2.2%

## CCOc1cccc(-c2ccc(CN3CCN(c4ccc(C(=O)NS(=O)(=O)C(C)(C)C)nn4)CC3)c(CC)c2)c1 [B2L075-01, N-tert-Butylsulfonyl-6-[4-[[4-(3-ethoxyphenyl)-2-ethylphenyl]methyl]piperazin-1-yl]pyridazine-3-carboxamide]
N = 1
  ASMS ratio (%): 0.0%
N = 2
  ASMS ratio (%): 33.9%

## CCOc1cccc(-c2ccccc2CN2CCN(c3ccc(C(=O)NCC45CC6CC(CC(C6)C4)C5)nn3)CC2)c1 [B1A071-01, N-(1-Adamantylmethyl)-6-[4-[[2-(3-ethoxyphenyl)phenyl]methyl]piperazin-1-yl]pyridazine-3-carboxamide]
[2]
  ASMS ratio (%) n = 1: −0.3%
  ASMS ratio (%) n = 2: −3.3%

## CCOc1cccc(-c2cc(CN3CCN(c4ccc(C(=O)NCC56CC7CC(CC(C7)C5)C6)cc4)CC3)cc(C(F)(F)F)c2)c1 [B1A061-01, N-(1-Adamantylmethyl)-4-[4-[[3-(3-ethoxyphenyl)-5-(trifluoromethyl)phenyl]methyl]piperazin-1-yl]benzamide]
[2]
  ASMS ratio (%) n = 1: 5.3%
  ASMS ratio (%) n = 2: 1.1%

## CCOc1cncc(-c2ccccc2CCC(=O)N2CCN(c3ccc(C(=O)N(CC)CC)nn3)CC2)c1 [B4J012-01, 6-[4-[3-[2-(5-Ethoxypyridin-3-yl)phenyl]propanoyl]piperazin-1-yl]-N,N-diethylpyridazine-3-carboxamide]
[1]
  ASMS ratio (%) n = 1: −1.1%
  ASMS ratio (%) n = 2: −0.8%

## CCOc1cncc(-c2ccc(CN3CCN(c4ccc(C(=O)NS(=O)(=O)C(C)(C)C)cc4)CC3)cc2C)c1 [B2L048-01]
N = 1
  ASMS ratio (%): 3.9%
N = 2
  ASMS ratio (%): −5.0%

## CCOc1cccc(C#Cc2ccccc2CN2CCN(c3ccc(C(=O)Nc4ccc(OC)cc4)nn3)CC2)c1 [B1O095-01, 6-[4-[[2-[2-(3-Ethoxyphenyl)ethynyl]phenyl]methyl]piperazin-1-yl]-N-(4-methoxyphenyl)pyridazine-3-carboxamide]
[1]
  ASMS ratio (%) n = 1: 2.7%
  ASMS ratio (%) n = 2: 0.0%

## CCOc1cncc(-c2ccc(C(=O)N3CCN(c4ccc(C(=O)NS(=O)(=O)C(C)(C)C)nn4)CC3)cc2F)c1 [B2L006-01, N-tert-Butylsulfonyl-6-[4-[4-(5-ethoxypyridin-3-yl)-3-fluorobenzoyl]piperazin-1-yl]pyridazine-3-carboxamide]
N = 1
  ASMS ratio (%): 0.0%
N = 2
  ASMS ratio (%): 0.0%

## CCOc1cccc(-c2cc(CN3CCN(c4ccc(C(=O)NS(=O)(=O)c5ccc(NCCSc6ccccc6)c(C(F)(F)F)c5)cc4)CC3)cc(OC(C)C)c2)c1 [B2R057-01, 4-[4-[[3-(3-Ethoxyphenyl)-5-propan-2-yloxyphenyl]methyl]piperazin-1-yl]-N-[4-(2-phenylsulfanylethylamino)-3-(trifluoromethyl)phenyl]sulfonylbenzamide]
N = 1
  ASMS ratio (%): 5.7%
N = 2
  ASMS ratio (%): −5.1%

## CCOc1cccc(-c2cc(CN3CCN(c4ccc(C(=O)NS(=O)(=O)C(C)(C)C)cc4)CC3)cc(OCC)c2)c1 [B2L055-01, N-tert-Butylsulfonyl-4-[4-[[3-ethoxy-5-(3-ethoxyphenyl)phenyl]methyl]piperazin-1-yl]benzamide]
N = 1
  ASMS ratio (%): 0.0%
N = 2
  ASMS ratio (%): 0.0%

## CCOc1cncc(-c2ccc(CN3CCN(c4ccc(C(=O)NS(=O)(=O)CC56CC7CC(CC(C7)C5)C6)cc4)CC3)cc2F)c1 [B2A052-01, N-(1-Adamantylmethylsulfonyl)-4-[4-[[4-(5-ethoxypyridin-3-yl)-3-fluorophenyl]methyl]piperazin-1-yl]benzamide]
AS-MS, mixture library, Bcl-2
  ASMS ratio (%) n = 1: 0.0%
  ASMS ratio (%) n = 2: 0.0%

## CCOc1cccc(-c2ccc(C(=O)N3CCN(c4ccc(C(=O)Nc5ccc(OC)cc5)cc4)CC3)cc2F)c1 [B1O027-01, 4-[4-[4-(3-Ethoxyphenyl)-3-fluorobenzoyl]piperazin-1-yl]-N-(4-methoxyphenyl)benzamide]
[1]
  ASMS ratio (%) n = 1: 3.8%
  ASMS ratio (%) n = 2: 2.1%

## 4-[4-[1-[4-(5-Ethoxypyridin-3-yl)phenyl]ethyl]piperazin-1-yl]-N-propylbenzamide [B1M004-01]
[2]
  ASMS ratio (%) n = 1: 0.0%
  ASMS ratio (%) n = 2: 0.0%

## CCOc1cccc(-c2ccccc2CCC(=O)N2CCN(c3ccc(C(=O)NS(=O)(=O)CCC(F)(F)F)cc3)CC2)c1 [B2N033-01, 4-[4-[3-[2-(3-Ethoxyphenyl)phenyl]propanoyl]piperazin-1-yl]-N-(3,3,3-trifluoropropylsulfonyl)benzamide]
N = 1
  ASMS ratio (%): 0.0%
N = 2
  ASMS ratio (%): 0.0%

## CCOc1cncc(-c2ccc(C(C)N3CCN(c4ccc(C(=O)N(C)CC56CC7CC(CC(C7)C5)C6)cc4)CC3)cc2)c1 (centres unmarked) [B3A098-01, N-(1-Adamantylmethyl)-4-[4-[1-[4-(5-ethoxypyridin-3-yl)phenyl]ethyl]piperazin-1-yl]-N-methylbenzamide]
[1]
  ASMS ratio (%) n = 1: 0.6%
  ASMS ratio (%) n = 2: 3.0%

## CCOc1cccc(-c2ccc(C(=O)N3CCN(c4ccc(C(=O)NS(=O)(=O)CC56CC7CC(CC(C7)C5)C6)cc4)CC3)cc2C)c1 [B2A025-01, N-(1-Adamantylmethylsulfonyl)-4-[4-[4-(3-ethoxyphenyl)-3-methylbenzoyl]piperazin-1-yl]benzamide]
AS-MS, mixture library, Bcl-2
  ASMS ratio (%) n = 1: 4.6%
  ASMS ratio (%) n = 2: −2.7%

## CCOc1cncc(C#Cc2ccccc2C(=O)N2CCN(c3ccc(C(=O)NCC(F)(F)F)cc3)CC2)c1 [B1K030-01, 4-[4-[2-[2-(5-Ethoxypyridin-3-yl)ethynyl]benzoyl]piperazin-1-yl]-N-(2,2,2-trifluoroethyl)benzamide]
[2]
  ASMS ratio (%) n = 1: 0.0%
  ASMS ratio (%) n = 2: 0.9%

## CCOc1cccc(-c2ccccc2CCC(=O)N2CCN(c3ccc(C(=O)Nc4ccc(OC)cc4)cc3)CC2)c1 [B1O033-01, 4-[4-[3-[2-(3-Ethoxyphenyl)phenyl]propanoyl]piperazin-1-yl]-N-(4-methoxyphenyl)benzamide]
[1]
  ASMS ratio (%) n = 1: 1.9%
  ASMS ratio (%) n = 2: 4.2%

## CCOc1cncc(C#Cc2ccccc2CN2CCN(c3ccc(C(=O)N(CC)CC)cc3)CC2)c1 [B4J070-01]
AS-MS, mixture library, Bcl-2
  ASMS ratio (%) n = 1: 0.0%
  ASMS ratio (%) n = 2: 0.0%

## 4-[4-[4-(3-Ethoxyphenyl)-3-fluorobenzoyl]piperazin-1-yl]-N-propylbenzamide [B1M090-01]
[1]
  ASMS ratio (%) n = 1: 0.0%
  ASMS ratio (%) n = 2: 0.0%

## CCOc1cccc(-c2ccc(C(C)N3CCN(c4ccc(C(=O)NS(=O)(=O)CCC(F)(F)F)cc4)CC3)cc2)c1 (centres unmarked) [B2N097-01, 4-[4-[1-[4-(3-Ethoxyphenyl)phenyl]ethyl]piperazin-1-yl]-N-(3,3,3-trifluoropropylsulfonyl)benzamide]
N = 1
  ASMS ratio (%): 0.0%
N = 2
  ASMS ratio (%): 0.0%

## CCOc1cncc(-c2ccc(C(=O)N3CCN(c4ccc(C(=O)NS(=O)(=O)c5ccc(NCCSc6ccccc6)c(C(F)(F)F)c5)nn4)CC3)c3ccccc23)c1 [B2R014-01, 6-[4-[4-(5-Ethoxypyridin-3-yl)naphthalene-1-carbonyl]piperazin-1-yl]-N-[4-(2-phenylsulfanylethylamino)-3-(trifluoromethyl)phenyl]sulfonylpyridazine-3-carboxamide]
N = 1
  ASMS ratio (%): 18.6%
N = 2
  ASMS ratio (%): 15.1%

## CCOc1cncc(-c2ccc(CN3CCN(c4ccc(C(=O)NCC(F)(F)F)nn4)CC3)c3ccccc23)c1 [B1K092-01, 6-[4-[[4-(5-Ethoxypyridin-3-yl)naphthalen-1-yl]methyl]piperazin-1-yl]-N-(2,2,2-trifluoroethyl)pyridazine-3-carboxamide]
[2]
  ASMS ratio (%) n = 1: 4.1%
  ASMS ratio (%) n = 2: −0.7%
